Laboratory results published in patent US11524003B2, “Alpha-amino esters of hydroxypropylthiazolidine carboxamide derivative and salt form, crystal polymorph thereof” (ObsEva S.A., priority 2016, dated 2022).
Entries after “also recorded” stand apart in the source; their conditions may differ. Structures can show the parent of a compound that is named as a salt. Where two headings read alike, the source gives them in different places. Where a SMILES comes first, the peptide text is derived from it. Bridges are numbered along the chain shown (N, C = ends). [ ]: non-standard residue; d: D form. Orn = NCCC[C@H](N)C(=O)O; Mpa = O=C(O)CCS

Key:
[1] = Aqueous solubility of compound I salts (FIG. 8); assay type: physicochemical; settings: water
[2] = test system: RU486-induced parturition; assay: RU486-induced preterm parturition in CD-1 mice
Experimental: (§1) Tocolytic effects were assessed by measuring the time from induction to delivery of the first pup for each mouse in the treatment and control cohorts, the time from time from induction to completion of delivery among all mice in each cohort, and viability of offspring among mice in each cohort. The inducers of preterm parturition used in this study were RU486 (also referred to as mifepristone), a steroidal antiprogestin that promotes cervical dilatation and provokes enhanced uterine contractility and sensitivity to prostaglandins, and lipopolysaccharide (LPS), a mediator of inflammation.
(§2) To induce labor at an early gestational age, a single dose of RU486 was administered to each mouse subcutaneously at 2.5 mg/kg (t=0). Mice treated with LPS received a single intraperitoneal injection of LPS at 2 mg/kg (t=0). Atosiban was administered to CD-1 mice by subcutaneous injection at 300 mg/kg at two distinct sites. These injections were performed at 5 hours (t=5) and 29 hours (t=29) following treatment with the inducing agent RU486 or LPS. […] Compound III was administered to CD-1 mice orally at either 10 mg/kg, 30 mg/kg, or 100 mg/kg at 5 hours (t=5), 19 hours (t=19), 29 hours (t=29), and 43 hours (t=43) following treatment with the inducing agent RU486 or LPS. […] The viability of pups delivered in each cohort was assessed by galenic hydrostatic pulmonary docimasy.

LPS-induced parturition = assay type: in vivo; settings: LPS-treated mice
Experimental: as §1, §2

[3] = Moisture sorption/desorption and relative humidity stability of compound I salts; assay type: physicochemical; settings: for Hygroscopicity: moisture balance data, hydrochloride
Experimental: Moisture sorption/desorption (MB) data were collected on a VTI SGA-100 Vapor Sorption Analyzer. Sorption and desorption data were collected over a range of 5% to 95% relative humidity (RH) at 10% RH intervals under a nitrogen purge. Samples were not dried prior to analysis. Equilibrium criteria used for analysis were less than 0.0100% weight change in 5 minutes, with a maximum equilibration time of 3 hours if the weight criterion was not met. Data were not corrected for the initial moisture content of the samples. NaCl and PVP were used as calibration standards.

[4] = nifedipine 5 mg/kg oral, compound III 10 mg/kg oral, alone or combined

SMILES: CC(C)[C@H](N)C(=O)OCC[C@H](NC(=O)[C@@H]1SCCN1S(=O)(=O)c1ccc(-c2ccccc2)cc1)c1ccc(F)cc1 [Compound III, (3S)-3-({[(2S)-3-(biphenyl-4-ylsulfonyl)-1,3-thiazolidin-2-yl]carbonyl}-amino)-3-(4-fluorophenyl)propyl L-valinate hydrochloride]
- solubility [1]: < 1000 µg/mL
- Effect on time to delivery ([2]; RU486-treated mice): increase in time to delivery compared to vehicle
- Time to delivery ([2]; RU486-treated mice, nifedipine 5 mg/kg oral, compound III 100 mg/kg oral, alone or combined): 23.70 ± 0.60 h
- Effect on fractional viability of offspring (LPS-induced parturition): dose-dependent increase in the fractional viability of offspring
- Fractional viability of offspring (LPS-induced parturition; compound III 100 mg/kg oral): 69.41%±15.76%
- Fractional viability of offspring (LPS-induced parturition; [4]): 57.90%±14.89%
- Time to delivery (LPS-induced parturition; [4]): 23.98 ± 0.66 h
- Stability at elevated relative humidity [3]: extended stability at elevated relative humidity
- Weight loss upon desorption [3]: approximately 0.7%
- Deliquescence at approximately 95% RH ([3]; 2 days, approximately 95% RH): did not deliquesce
- Weight gain on sorption ([3]; from 5 to 95% relative humidity): Approximately 0.9%
- Hygroscopicity [3]: low hygroscopicity
- Hygroscopicity ([3]; listed as chloride salt): non-hygroscopic
- Hygroscopicity ([3]; listed as hydrochloride salt): low hygroscopicity; also recorded: non-hygroscopic

SMILES: CC#C[C@]1(O)CC[C@H]2[C@@H]3CCC4=CC(=O)CCC4=C3[C@@H](c3ccc(N(C)C)cc3)C[C@@]21C [RU486, mifepristone]
- Mean delivery time following induction ([2]; RU486 2.5 mg/kg s.c. at gestational age 17 days): 21 ± 1.00 h
- Mice excluded due to death or sacrifice during the study ([2]; female, CD-1, mouse, in vivo, 2.5 mg/kg): 3%
- Pups delivered alive ([2]; inducer alone): 96%

SMILES: CCOc1ccc(C[C@H]2NC(=O)CCSSC[C@@H](C(=O)N3CCC[C@H]3C(=O)N[C@@H](CCCN)C(=O)NCC(N)=O)NC(=O)[C@H](CC(N)=O)NC(=O)[C@H]([C@@H](C)O)NC(=O)[C@H]([C@@H](C)CC)NC2=O)cc1 [atosiban, reference compound] ([Mpa][dY](Et)ITNCP[Orn]G-NH2; disulfide 1-6)
- Effect on time to delivery (LPS-induced parturition): increase in time to delivery
- Time to delivery (LPS-induced parturition; atosiban 300 mg/kg s.c., compound III 100 mg/kg oral, alone or combined): 28.41 ± 2.99 h

SMILES: COC(=O)C1=C(C)NC(C)=C(C(=O)OC)C1c1ccccc1[N+](=O)[O-] [nifedipine, reference compound]
- Fractional viability of offspring (LPS-induced parturition; [4]): 90.39%±5.34%
